# Experiment: Compound was tested for the inhibition of PTP-epsilon at the concentration 100 uM
row,Compound,inhibition
1,CN(C)c1ccc(C(NC(=O)c2ccc(C(F)(F)P(=O)(O)O)cc2)C(=O)NCc2ccccc2)cc1 (stereo not drawn),> 50%
2,CCCCCC(NC(=O)c1ccc(C(F)(F)P(=O)(O)O)cc1)C(=O)NCc1ccccc1 (stereo not drawn),> 50%
3,O=C(NC(C(=O)NCc1ccccc1)c1ccc(Oc2ccccc2)cc1)c1ccc(C(F)(F)P(=O)(O)O)cc1 (stereo not drawn),> 50%
